Reference: ChEMBL document CHEMBL3217480, “Cytotoxic sugar analogues of an optimized novobiocin scaffold” (Medchemcomm, 2010)
Each block holds one molecule with its values, some of them ahead of it. Calls of active or inactive are those of the source. No cut-off for these calls is given here.

Tests used:
[1] = system: MCF7; assay: Antiproliferative activity against estrogen receptor positive human MCF7 cells after 72 hrs by MTS assay; type: functional, cell-based; conditions: MCF7, 72 h
[2] = Antiproliferative activity against estrogen receptor-negative, Her2 overexpressing human SKBR3 cells after 72 hrs by MTS assay; type: functional, cell-based; conditions: SK-BR-3, 72 h
[3] = Inhibition of human SKBR3 cell proliferation; type: functional, cell-based; conditions: SK-BR-3
[4] = system: MCF7; assay: Effect on Hsp90 protein expression in human MCF7 cells at 0.5 to 25 uM after 24 hrs by Western blot analysis; type: functional, cell-based
[5] = system: MCF7; assay: Effect on actin expression in human MCF7 cells at 0.5 to 25 uM after 24 hrs by Western blot analysis; type: ADME, cell-based; conditions: mcf7, 24 h
[6] = molecular target: Heat shock protein HSP 90-beta (Homo sapiens) (UniProt P08238); assay: Inhibition of HSP90-dependent client protein Her-2 degradation in human MCF7 cells after 24 hrs by Western blot analysis; type: cell-based
Sequence of Heat shock protein HSP 90-beta (Homo sapiens) (P08238 whole entry): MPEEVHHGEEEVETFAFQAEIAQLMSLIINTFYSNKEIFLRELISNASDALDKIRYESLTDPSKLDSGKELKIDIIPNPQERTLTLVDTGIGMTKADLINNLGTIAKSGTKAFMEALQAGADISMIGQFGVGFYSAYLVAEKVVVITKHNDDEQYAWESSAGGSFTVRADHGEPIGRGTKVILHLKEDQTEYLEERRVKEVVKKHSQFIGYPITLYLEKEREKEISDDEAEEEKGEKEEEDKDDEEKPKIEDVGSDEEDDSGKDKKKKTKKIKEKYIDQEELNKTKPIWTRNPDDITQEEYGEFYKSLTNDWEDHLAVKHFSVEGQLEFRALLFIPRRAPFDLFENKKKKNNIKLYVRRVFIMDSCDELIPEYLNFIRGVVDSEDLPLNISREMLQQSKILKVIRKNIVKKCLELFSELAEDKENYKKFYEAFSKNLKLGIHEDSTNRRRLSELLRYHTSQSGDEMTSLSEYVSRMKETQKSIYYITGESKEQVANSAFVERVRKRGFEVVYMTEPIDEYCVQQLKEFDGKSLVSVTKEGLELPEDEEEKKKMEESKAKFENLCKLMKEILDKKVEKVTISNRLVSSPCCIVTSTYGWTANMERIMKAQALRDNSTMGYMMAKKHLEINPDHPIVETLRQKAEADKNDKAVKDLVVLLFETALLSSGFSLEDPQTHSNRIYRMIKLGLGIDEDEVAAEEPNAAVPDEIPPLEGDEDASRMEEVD

[7] = molecular target: Heat shock protein HSP 90-beta (Homo sapiens) (UniProt P08238); assay: Inhibition of HSP90-dependent client protein Akt degradation in human MCF7 cells after 24 hrs by Western blot analysis; type: cell-based
[8] = molecular target: Heat shock protein HSP 90-beta (Homo sapiens) (UniProt P08238); assay: Inhibition of HSP90-dependent client protein Raf degradation in human MCF7 cells after 24 hrs by Western blot analysis; type: cell-based
[9] = Inhibition of human Jurkat T cell cell proliferation; type: functional, cell-based
[10] = system: PC-3; assay: Inhibition of human PC3 cell proliferation; type: functional, cell-based
[11] = Inhibition of human PL45 cell proliferation; type: functional, cell-based
[12] = system: HCT-116; assay: Inhibition of human HCT116 cell proliferation; type: functional, cell-based
[13] = system: LNCaP; assay: Inhibition of human LNCAP cell proliferation; type: functional, cell-based

Structure (SMILES): COc1cccc(-c2cc(C(=O)Nc3cc4ccc(O[C@@H]5OC(C)(C)[C@H](OC)[C@@H](O)[C@H]5O)c(C)c4oc3=O)ccc2OC)c1
IC50 [1]: 18.7 µM
IC50 [3]: 7.5 µM
IC50 [2]: 7.5 µM

Structure (SMILES): CNC(=O)Oc1ccc2cc(NC(=O)c3ccc(OC)c(-c4cccc(OC)c4)c3)c(=O)oc2c1C
Activity [4]: inactive
Activity [5]: Non-toxic
inhibition [6]: Dose-dependent effect
inhibition [7]: Dose-dependent effect
inhibition [8]: Dose-dependent effect

Structure (SMILES): COc1cccc(-c2cc(C(=O)Nc3cc4ccc(O[C@H]5C[C@H](O)CCO5)c(C)c4oc3=O)ccc2OC)c1
IC50 [1]: 11.2 µM
IC50 [2]: 9.28 µM

Structure (SMILES): COc1cccc(-c2cc(C(=O)Nc3cc4ccc(O[C@@H]5CCC[C@@H](O)[C@H]5O)c(C)c4oc3=O)ccc2OC)c1
IC50 [1]: > 100 µM
IC50 [2]: > 100 µM

Continued, in another order:

IC50 [1]: 9.18 µM
Structure (SMILES): COc1cccc(-c2cc(C(=O)Nc3cc4ccc(OC5CCCN(C(C)=O)C5)c(C)c4oc3=O)ccc2OC)c1 (centres undefined)
IC50 [2]: 10.8 µM

IC50 [1]: > 100 µM
Structure (SMILES): COc1cccc(-c2cc(C(=O)Nc3cc4cc(OC)c(O[C@@H]5OC(C)(C)[C@H](OC)[C@@H](O)[C@H]5O)c(C)c4oc3=O)ccc2OC)c1
IC50 [3]: 58.8 µM
IC50 [2]: 58.8 µM

IC50 [1]: 1.5 µM
IC50 [10]: 0.97 µM
IC50 [12]: 0.52 µM
IC50 [13]: 0.42 µM
Structure (SMILES): COc1cccc(-c2cc(C(=O)Nc3cc4cc(OC)c(OC(C)=O)c(C)c4oc3=O)ccc2OC)c1
IC50 [9]: 0.42 µM
IC50 [3]: 5.72 µM
IC50 [11]: 4.1 µM

inhibition [6]: Dose-dependent effect
inhibition [7]: Dose-dependent effect
inhibition [8]: Dose-dependent effect
Structure (SMILES): COc1cccc(-c2cc(C(=O)Nc3cc4ccc(OC5CCN(C)CC5)c(C)c4oc3=O)ccc2OC)c1
Activity [4]: inactive
Activity [5]: Non-toxic
